From patent US20220402862A1 (Intellia Therapeutics, Inc., priority 2019, published 2022)

Key:
[1] = pKa measurement of unformulated amine lipid (fluorescence, method of Jayaraman et al.); type: physicochemical; conditions: 100 μM in 0.1 M phosphate buffer, pH 2.0-12.0
Description: The pKa of each amine lipid was determined according to the method in Jayaraman, et al. (Angewandte Chemie, 2012) with the following adaptations. […] Lipid was diluted to 100 μM in 0.1 M phosphate buffer (Boston Bioproducts) where the pH ranged from 2.0-12.0. Fluorescence intensity was measured using excitation and emission wavelengths of 321 nm and 448 nm.

[2] = RNA encapsulation efficiency of LNPs (Ribogreen fluorescence assay); type: physicochemical; conditions: LNP
Description: A fluorescence-based assay (Ribogreen®, ThermoFisher Scientific) is used to determine total RNA concentration and free RNA. Encapsulation efficiency is calculated as (Total RNA-Free RNA)/Total RNA. LNP samples are diluted appropriately with 1× TE buffer containing 0.2% Triton-X 100 to determine total RNA or 1× TE buffer to determine free RNA. Standard curves are prepared by utilizing the starting RNA solution used to make the compositions and diluted in 1× TE buffer +/− 0.2% Triton-X 100. Diluted RiboGreen® dye (according to the manufacturer's instructions) is then added to each of the standards and samples and allowed to incubate for approximately 10 minutes at room temperature, in the absence of light. A SpectraMax M5 Microplate Reader (Molecular Devices) is used to read the samples with excitation, auto cutoff and emission wavelengths set to 488 nm, 515 nm, and 525 nm respectively. Total RNA and free RNA are determined from the appropriate standard curves.
Encapsulation efficiency is calculated as (Total RNA-Free RNA)/Total RNA. The same procedure may be used for determining the encapsulation efficiency of a DNA-based cargo component. In a fluorescence-based assay, for single-strand DNA Oligreen Dye may be used, and for double-strand DNA, Picogreen Dye. Alternatively, the total RNA concentration can be determined by a reverse-phase ion-pairing (RP-IP) HPLC method. Triton X-100 is used to disrupt the LNPs, releasing the RNA. The RNA is then separated from the lipid components chromatographically by RP-IP HPLC and quantified against a standard curve using UV absorbance at 260 nm.

Transthyretin (TTR) = assay: Serum TTR ELISA in mice after LNP dosing; type: in vivo, CD-1 female mice; conditions: guide G282 experiments; for Serum TTR % TSS: mouse serum TTR relative to TSS control; for Serum TTR: mouse serum, ELISA
Description: CD-1 female mice ranging from 6-10 weeks of age were used in each study. Animals were weighed and grouped according to body weight for preparing dosing solutions based on group average weight. LNPs were dosed via the lateral tail vein in a volume of 0.2 mL per animal (approximately 10 mL per kilogram body weight). The animals were periodically observed for adverse effects for at least 24 hours post dose. For studies measuring in vivo editing in liver, CD-1 female mice were dosed at 0.1 mg/kg unless otherwise noted. Animals were euthanized at 6 or 7 days by ex sanguination via cardiac puncture under isoflurane anesthesia. Liver tissue was collected from each animal for DNA extraction and analysis. Blood was collected into serum separator tubes or into tubes containing buffered sodium citrate for plasma as described herein. Cohorts of mice were measured for editing by Next-Generation Sequencing (NGS).
Blood was collected and the serum was isolated as indicated. The total mouse TTR serum levels were determined using a Mouse Prealbumin (Transthyretin) ELISA Kit (Aviva Systems Biology, Cat. OKIA00111). Briefly, sera were serial diluted with kit sample diluent to a final dilution of 10,000-fold for 0.1 mg/kg dose and final dilutions of 10,000-fold and of 2,500-fold for 0.3 mg/kg. This diluted sample was then added to the ELISA plates and the assay was carried out according to the manufacturer's directions.

[3] = Dynamic light scattering of LNPs: Z-average diameter, number average diameter, PDI; type: physicochemical; conditions: LNP
Description: Dynamic Light Scattering (“DLS”) is used to characterize the polydispersity index (“PDI”) and size of the LNPs of the present disclosure. DLS measures the scattering of light that results from subjecting a sample to a light source. PDI, as determined from DLS measurements, represents the distribution of particle size (around the mean particle size) in a population, with a perfectly uniform population having a PDI of zero.
LNP compositions are analyzed for average particle size, polydispersity index (PDI), total RNA content, encapsulation efficiency of RNA, and zeta potential. LNP compositions may be further characterized by lipid analysis, AF4-MALS, NTA, and/or cryo-EM. Average particle size and polydispersity are measured by dynamic light scattering (DLS) using a Malvern Zetasizer DLS instrument or Wyatt NanoStar. LNP samples were diluted with PBS buffer prior to being measured by DLS. Z-average diameter which is an intensity-based measurement of average particle size is reported along with number average diameter and PDI. A Malvern Zetasizer or Wyatt NanoStar instrument is also used to measure the zeta potential of the LNP. Samples are diluted 1:17 (50 μL into 800 μL) in 0.1× PBS, pH 7.4 prior to measurement.

[4] = sg:mRNA 1:1, N/P about 6, amine lipid/DSPC/cholesterol/PEG-2k-DMG 50/9/38/3, Table 2, Experiments 2-20
[5] = sg:mRNA 1:1, N/P about 6, 50/9/38/3, Table 2, Experiments 2-20
[6] = sg:mRNA 1:1.3, N/P about 6, amine lipid/DSPC/cholesterol/PEG-2k-DMG 50/9/38/3, Table 2, Experiment 1
[7] = sg:mRNA 1:1.3, N/P about 6, 50/9/38/3, Table 2, Experiment 1

SMILES	pKa [1]	Encapsulation (%) [2, 4] [%]	Number mean (nm) [3, 5] [nm]	PDI [3, 5]	Z-avg (nm) [3, 5] [nm]	Encapsulation (%) [2, 6] [%]	Number mean (nm) [3, 7] [nm]	PDI [3, 7]	Z-avg (nm) [3, 7] [nm]	Serum TTR % TSS (Transthyretin (TTR)) [%]	Serum TTR (Transthyretin (TTR)) [µg/mL]
CCCCC/C=C\C/C=C\CCCCCCCC(=O)OCC(COC(=O)CCC(OCCCCCCCC)OCCCCCCCC)COC(=O)OC1CCN(CC)CC1 (centres unmarked) [Compound 17, 3-((4,4-bis(octyloxy)butanoyl)oxy)-2-(((((1-ethylpiperidin-4-yl)oxy)carbonyl)oxy)methyl)propyl (9Z,12Z)-octadeca-9,12-dienoate]	–	98	56.58	0.037	70.97	–	–	–	–	70	727
CCCCC/C=C\C/C=C\CCCCCCCC(=O)OCC(COC(=O)CCC(OCCCCCCCC)OCCCCCCCC)COC(=O)OCC1CCCN1C (centres unmarked) [Compound 14, 3-((4,4-bis(octyloxy)butanoyl)oxy)-2-(((((1-methylpyrrolidin-2-yl)methoxy)carbonyl)oxy)methyl)propyl (9Z,12Z)-octadeca-9,12-dienoate]	–	93	45.18	0.091	64.69	–	–	–	–	88	908
CCCCC/C=C\C/C=C\CCCCCCCC(=O)OCC(COC(=O)CCC(OCCCCCCCC)OCCCCCCCC)COC(=O)NCCCN(CC)CC (centres unmarked) [Compound 7, 3-((4,4-bis(octyloxy)butanoyl)oxy)-2-((((3-(diethylamino)propyl)carbamoyl)oxy)methyl)propyl (9Z,12Z)-octadeca-9,12-dienoate]	–	99	43.91	0.126	67.61	–	–	–	–	104	940
CCCCC/C=C\C/C=C\CCCCCCCC(=O)OCC(COC(=O)CCC(OCCCCCCCC)OCCCCCCCC)COC(=O)OCCCN(C)C (centres unmarked) [Compound 2, 3-((4,4-bis(octyloxy)butanoyl)oxy)-2-((((3-(dimethylamino)propoxy)carbonyl)oxy)methyl)propyl (9Z,12Z)-octadeca-9,12-dienoate]	–	–	–	–	–	96	59.17	0.046	75.64	90	1114
CCCCC/C=C\C/C=C\CCCCCCCC(=O)OCC(COC(=O)CCC(OCCCCCCCC)OCCCCCCCC)COC(=O)OCCN(C)C (centres unmarked) [Compound 18, 3-((4,4-bis(octyloxy)butanoyl)oxy)-2-((((2-(dimethylamino)ethoxy)carbonyl)oxy)methyl)propyl (9Z,12Z)-octadeca-9,12-dienoate]	–	97	48.22	0.090	68.72	–	–	–	–	82	849
CCCCC/C=C\C/C=C\CCCCCCCC(=O)OCC(COC(=O)CCC(OCCCCCCCC)OCCCCCCCC)COC(=O)NCCCN1CCCC1 (centres unmarked) [Compound 8, 3-((4,4-bis(octyloxy)butanoyl)oxy)-2-((((3-(pyrrolidin-1-yl)propyl)carbamoyl)oxy)methyl)propyl (9Z,12Z)-octadeca-9,12-dienoate]	–	100	37.17	0.093	53.88	–	–	–	–	106	962
CCCCC/C=C\C/C=C\CCCCCCCC(=O)OCC(COC(=O)CCC(OCCCCCCCC)OCCCCCCCC)COC(=O)OCCCN(C)CCN(C)C (centres unmarked) [Compound 4, 13-(((4,4-bis(octyloxy)butanoyl)oxy)methyl)-2,5-dimethyl-10-oxo-9,11-dioxa-2,5-diazatetradecan-14-yl (9Z,12Z)-octadeca-9,12-dienoate]	–	–	–	–	–	100	44.92	0.129	72.11	109	1347
CCCCC/C=C\C/C=C\CCCCCCCC(=O)OCC(COC(=O)CCC(OCCCCCCCC)OCCCCCCCC)COC(=O)OCCCCN(CC)CC (centres unmarked) [Compound 11, 3-((4,4-bis(octyloxy)butanoyl)oxy)-2-((((4-(diethylamino)butoxy)carbonyl)oxy)methyl)propyl (9Z,12Z)-octadeca-9,12-dienoate]	–	97	68.35	0.022	85.35	–	–	–	–	78	706

Continued, in another order:

pKa [1]	Encapsulation (%) [2, 4] [%]	Number mean (nm) [3, 5] [nm]	PDI [3, 5]	Z-avg (nm) [3, 5] [nm]	Encapsulation (%) [2, 6] [%]	Number mean (nm) [3, 7] [nm]	PDI [3, 7]	Z-avg (nm) [3, 7] [nm]	SMILES	Serum TTR % TSS (Transthyretin (TTR)) [%]	Serum TTR (Transthyretin (TTR)) [µg/mL]
7.84	–	–	–	–	–	–	–	–	CCCCC/C=C\C/C=C\CCCCCCCC(=O)OCC(COC(=O)CCC(OCCCCCCCC)OCCCCCCCC)COC(=O)NCCN(C)C (centres unmarked) [Compound 34, 3-((4,4-bis(octyloxy)butanoyl)oxy)-2-((((2-(dimethylamino)ethyl)carbamoyl)oxy)methyl)propyl (9Z,12Z)-octadeca-9,12-dienoate]	–	–
7.39	–	–	–	–	–	–	–	–	CCCCC/C=C\C/C=C\CCCCCCCC(=O)OCC(COC(=O)CCC(OCCCCCCCC)OCCCCCCCC)COC(=O)NCCN(C)CC (centres unmarked) [Compound 35, 3-((4,4-bis(octyloxy)butanoyl)oxy)-2-((((2-(ethyl(methyl)amino)ethyl)carbamoyl)oxy)methyl)propyl (9Z,12Z)-octadeca-9,12-dienoate]	–	–
–	94	59.75	0.039	75.41	–	–	–	–	CCCCC/C=C\C/C=C\CCCCCCCC(=O)OCC(COC(=O)CCC(OCCCCCCCC)OCCCCCCCC)COC(=O)OCCCN(C(C)C)C(C)C (centres unmarked) [Compound 21, 3-((4,4-bis(octyloxy)butanoyl)oxy)-2-((((3-(diisopropylamino)propoxy)carbonyl)oxy)methyl)propyl (9Z,12Z)-octadeca-9,12-dienoate]	87	897
–	95	56.62	0.068	74.78	–	–	–	–	CCCCC/C=C\C/C=C\CCCCCCCC(=O)OCC(COC(=O)CCC(OCCCCCCCC)OCCCCCCCC)COC(=O)OCCCN1CCCCCC1 (centres unmarked) [Compound 23, 3-(((3-(azepan-1-yl)propoxy)carbonyl)oxy)-2-(((4,4-bis(octyloxy)butanoyl)oxy)methyl)propyl (9Z,12Z)-octadeca-9,12-dienoate]	83	716
–	96	64.34	0.023	79.25	–	–	–	–	CCCCC/C=C\C/C=C\CCCCCCCC(=O)OCC(COC(=O)CCC(OCCCCCCCC)OCCCCCCCC)COC(=O)OCCCN(C)CC (centres unmarked) [Compound 20, 3-((4,4-bis(octyloxy)butanoyl)oxy)-2-((((3-(ethyl(methyl)amino)propoxy)carbonyl)oxy)methyl)propyl (9Z,12Z)-octadeca-9,12-dienoate]	46	476
